According to patent publication US20240215575A1, “METHOD OF PREPARING 1-(2,2-DIMETHYLPROPYL)-CYCLOPROPENE AS SPRAYABLE ETHYLENE ANTAGONIST IN PLANTS AND USES THEREOF” (KYUNG SANG NAM DO, priority 2022, published 2024):
In brackets after ≈: the same amount, converted by molar mass. Read-outs that look alike come from different tables or passages of the source.

Assays:
[1] = test system: Taechu sweet persimmon fruits; experiment: 1-DCP spray treatment of Taechu sweet persimmon fruits on the tree, flesh hardness during room temperature storage; assay type: in vivo, sweet persimmon (Taechu variety)
Method: In particular, four sweet persimmon trees of the Taechu variety were selected on October 7th at the Sweet Persimmon Research Institute Orchard located in Jinyeong-eup, Gyeongsangnam-do, and the fruits growing on two of these trees (control group) were treated with a solution containing 0.025% wetting agent (Carba, Farmhannong), and the fruits of the other two trees (treatment group) were sprayed with an aqueous emulsion containing 1 mM 1-DCP and 0.025% wetting agent using a manual sprayer. Fruits in each treatment group were harvested on October 24, and measured/observed for changes in flesh hardness after 7 days and 14 days while being stored at room temperature.

[2] = Storage stability of 1-DCP and its cyclodextrin inclusion complex; assay type: physicochemical
[3] = test system: banana fruits; experiment: 1-DCP immersion treatment of immature banana fruit followed by ethylene exposure; assay type: in vivo
Method: In particular, immature banana fruits were harvested from a banana farm in Sancheong-gun, Gyeongsangnam-do and transported to the laboratory, and on the same day, the fruits were separated into two groups: the fruits (16) in Group A (control group) were immersed in a 0.025% wetting agent (Carba, FarmHannong) solution not containing 1-DCP, and the fruits (16) in Group B (treatment group) were immersed in a 1 mM 1-DCP aqueous emulsion for 1 second, respectively, to wet the surface with the solution, and then dried at room temperature. Subsequently the next day, half of the fruits (8 each) from groups A and B were divided into two 40 L containers, sealed, and then injected with ethylene gas, thus exposing the fruits to 10 ppm of ethylene for 24 hours. The treated banana fruits were then stored at room temperature and observed for the degree of ripening after 7 days and after 14 days.

[4] = cited from earlier work

Structure (SMILES): CC(C)(C)CC1=CC1 [1-DCP, 1-(2,2-dimethylpropyl)-cyclopropene]
- flesh hardness ([1]; spray of 1 mM 1-DCP aqueous emulsion with 0.025% wetting agent, after 7 days of storage at room temperature): 19.5 N
- inhibition of ethylene action ([1]; spray treatment, 1 mM or less, Taechu fruits): effectively inhibits ethylene action
- storage stability (polymerization) ([2]; refrigerated conditions): polymerization occurred within a few days
- storage stability ([2]; room temperature): storage at room temperature for more than one day was impossible
- storage stability ([2]; stored in a −40° C. freezer): several months or more
- degree of ripening ([3]; 1 mM 1-DCP aqueous emulsion, immersion for 1 second, 10 ppm ethylene for 24 hours, room temperature storage, observed after 7 and 14 days): maintained a more immature state than the fruits of Group A up to 14 days
- inhibition of ethylene action ([3]; immersion treatment, 1 mM or less, banana fruits): effectively inhibits ethylene action

Structure (SMILES): OC[C@H]1O[C@@H]2O[C@H]3[C@H](O)[C@@H](O)[C@@H](O[C@H]4[C@H](O)[C@@H](O)[C@@H](O[C@H]5[C@H](O)[C@@H](O)[C@@H](O[C@H]6[C@H](O)[C@@H](O)[C@@H](O[C@H]7[C@H](O)[C@@H](O)[C@@H](O[C@H]1[C@H](O)[C@H]2O)O[C@@H]7CO)O[C@@H]6CO)O[C@@H]5CO)O[C@@H]4CO)O[C@@H]3CO [a-cyclodextrin, α-cyclodextrin]
- solubility in water [4]: 140 mg/mL (≈ 144 mM)

Structure (SMILES): OC[C@H]1O[C@@H]2O[C@H]3[C@H](O)[C@@H](O)[C@@H](O[C@H]4[C@H](O)[C@@H](O)[C@@H](O[C@H]5[C@H](O)[C@@H](O)[C@@H](O[C@H]6[C@H](O)[C@@H](O)[C@@H](O[C@H]7[C@H](O)[C@@H](O)[C@@H](O[C@H]8[C@H](O)[C@@H](O)[C@@H](O[C@H]1[C@H](O)[C@H]2O)O[C@@H]8CO)O[C@@H]7CO)O[C@@H]6CO)O[C@@H]5CO)O[C@@H]4CO)O[C@@H]3CO [β-cyclodextrin]
- solubility in water ([4]; compared to the alpha type): extremely low solubility in water
